According to PMC8010219, “Molecular basis for the interaction of cellular retinol binding protein 2 (CRBP2) with nonretinoid ligands” (Journal of Lipid Research, 2021):
Where a chain is given by its changes, count along the chain named. Like-named read-outs stand apart in the source and are kept apart here.

Tests used:
human CRBP2 [1] = target: T1, human CRBP2 (Homo sapiens, UniProt P50120); assay: Chromophore (atROL) replacement fluorescence titration of holo-CRBP2; format: binding; settings: for Kd: holo-CRBP2 titrated with ligand, 25°C, pH 7.4, average of at least three independent titrations, mean ± SD; for fold decrease in affinity (increase in Kd) as compared with 2-AG: ratio of Kd values versus 2-AG
T1 construct: inferred from the Ni-NTA purification; made in house; host or cells: Escherichia coli BL21(DE3)
T1 sequence (P50120 1-134): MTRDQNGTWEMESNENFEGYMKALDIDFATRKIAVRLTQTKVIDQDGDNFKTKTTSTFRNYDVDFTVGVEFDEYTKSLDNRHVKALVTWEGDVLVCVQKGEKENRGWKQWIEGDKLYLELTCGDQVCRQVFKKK
Method: (§1) The chromophore replacement assay was performed as described by Silvaroli et al. ([12]). CRBP2 in complex with atROL was excited with photons at a wavelength of 285 nm. Fluorescence emission was monitored at 350 and 480 nm. Titration with an alternative ligand causes liberation of atROL from the binding pocket and lack of fluorescence resonance energy transfer between the tryptophan residues and the retinoid moiety. The net effect is decrease in the fluorescence signal at 480 nm and concomitant increase at 350 nm (Fig. 1A, B). The experiments were performed on PerkinElmer Life Science LS55 spectrofluorometer at 25°C, using a 1 cm quart cuvette. Three microliters of buffer, 67 mM phosphate-buffered saline (pH 7.4%), 5% glycerol (v/v) containing 1 μg/ml of CRBP2 were dispensed into the cuvette. Increasing concentrations of tested compounds were delivered in acetonitrile. […] The obtained fluorescence spectra corrected for the background. Analysis of the changes in the maximum emission values at the different concentrations of ligands was used to calculate Kd values using the saturation single ligand binding model (SigmaPlot 11 software package; Systat Software). Each Kd listed in Table 1 represents an average value obtained from at least three independent titrations.

human CRBP2 [2] = target: T1, human CRBP2; design: method as in PMID 32195347; settings: holo-CRBP2 titrated with ligand, cited from earlier work
CRBP1 = target: CRBP1; design: method as in PMID 27830500; settings: atROL binding to CRBP1; cited from earlier work
CRBP2^T51I/V62M = target: T2, CRBP2^T51I/V62M (Homo sapiens, UniProt P50120, T52I/V63M); assay: Chromophore (atROL) replacement fluorescence titration of the mutant protein; format: binding
T2 construct: made in house; host or cells: Escherichia coli BL21(DE3)
T2 sequence (P50120 1-134 T52I/V63M): T1 sequence (P50120 1-134) with T52I, V63M
Description: To introduce substitute mutations T51/I and V62/M, cDNA of CRBP2 was cloned into pCR 2.1 vector (Thermo Fisher Scientific). The mutations were introduced by PCR using 5’ phosphorylated primers of the following sequences: T51/I: forward, […]; reverse, […]; V62/M: forward, […]; reverse, […]. The presence of desired substitutions was verified by sequencing. To obtain mutated proteins, their cDNAs harboring these changes were cloned into pET3b vector and expressed and purified as described above.
as §1, with “cuvette.” for “cuvette. Increasing concentrations of tested compounds were delivered in acetonitrile.”, “Analysis of the changes in the maximum emission values at the different concentrations of ligands was used to calculate Kd values using the saturation single ligand binding model (SigmaPlot 11 software package; Systat Software). Each Kd listed in Table 1 represents an average value obtained from at least three independent titrations.” left out

human CRBP2 [3] = target: T1, human CRBP2; assay: X-ray crystal structures of CRBP2 in complex with ligands (enantiomer seen in binding pocket); settings: racemic mixture used for crystallization
Method: The crystallization conditions were identical to those published by Lee et al. ([9]). Human CRBP2 in complexes with nonretinoid ligands were crystallized using the sitting drop vapor diffusion method. Prior to setting up crystallization drops, CRBP2 (9 mg/ml) was incubated with 50 μM of ligand in 10 mM Tris-HCl (pH 8.0) and 150 mM NaCl for 20 min on ice. Protein samples were mixed in a 1:1 ratio with 1 μl of 0.1 M Tris-HCl (pH 8%) and 22–28% polyethylene glycol 3350. The wells were sealed and stored at room temperature. Crystals were collected, cryoprotected in 10% glycerol, 10% polyethylene glycol 2000 (v/v), and flash frozen in liquid nitrogen.
X-ray diffraction data were collected at the Advanced Photon Source Northeastern Collaborative Access Team 24-ID-C and 24-ID-E beamlines. Data reduction was performed using iMosflm software package ([17]). The structures were solved by molecular replacement with PHASER_MR ([18]) and the refined model of CRBP2 [Protein Data Bank (PDB) accession code: 6BTI] as a search model. Adjustments to the protein model were made with COOT ([19]), and the initial model was refined with PHENIX ([20]). […] The coordinates and structure factors for each of the structure analyzed in this report were deposited in the PDB under the following accession codes: 7JVG, 7JVY, 7JWD, 7JWR, 7K3I, 7JX2, and 7JZ5 (Table 2).

SMILES | Kd (human CRBP2 [1]) | fold decrease in affinity (increase in Kd) as compared with 2-AG (human CRBP2 [1]) | other results
CCCCCCCCCCCCCCCCCCCC(=O)OCC(O)CO (stereo not drawn) [1-ArG, 1-Arachidoyl glycerol] | 133 ± 33.1 nM | ~5 fold | –
CCCCC/C=C\C/C=C\CCCCCCCC(=O)OC(CO)CO [2-LG, 2-Linoleoyl glycerol] | – | – | Kd (human CRBP2 [2]; read-out: Kd): 40 ± 4.4 nM
CCCCC/C=C\C/C=C\C/C=C\C/C=C\CCCCOC(CO)CO [2-AGE, 2-Arachidonoyl glycerol ether] | 45.7 ± 2.7 nM | – | –
CCCCCCCC/C=C\CCCCCCCC(=O)OC(CO)CO [2-OG, 2-Oleoyl glycerol] | – | – | Kd (human CRBP2 [2]; read-out: Kd): 65.4 ± 4.4 nM
CCCCC/C=C\C/C=C\C/C=C\C/C=C\CCCC(=O)NCCO [AEA, Arachidonoyl ethanolamide] | – | ~25 fold | Kd (human CRBP2 [2]; read-out: Kd): 663 ± 24 nM
CC1=C(/C=C/C(C)=C/C=C/C(C)=C/CO)C(C)(C)CCC1 [atROL, all-trans-retinol] | – | – | Kd (CRBP1): ~10 nM
CCCCC/C=C\C/C=C\C/C=C\C/C=C\CCCC(=O)OC(CO)CO [2-AG, 2-Arachidonoyl glycerol] | – | – | Kd (CRBP2^T51I/V62M; CRBP2 T51I/V62M double mutant): 447 ± 46.1 nM; fold decrease in the affinity at the mutant (CRBP2^T51I/V62M; CRBP2^T51I/V62M versus WT CRBP2): over 16 fold; Kd (human CRBP2 [2]): 27.1 ± 2.5 nM
CCCCC/C=C\C/C=C\C/C=C\C/C=C\CCCC(=O)OCC(O)CO (stereo not drawn) [1-AG, 1-Arachidonoyl glycerol] | – | – | enantiomer exclusively present in the binding pocket (electron density) (human CRBP2 [3]): S-enantiomer; Kd (human CRBP2 [2]): 37.9 ± 3.3 nM

The next lines start with results.

Kd (human CRBP2 [1]) | fold decrease in affinity (increase in Kd) as compared with 2-AG (human CRBP2 [1]) | SMILES | other results
153 ± 7.3 nM | – | CCCCCCCCCCCCCCCCOCC(O)CO (stereo not drawn) [1-O-HG, 1-O-hexadecyl glycerol] | –
780 ± 86.5 nM | 29 fold | CCCCCCCCCC(=O)OCC(O)CO (stereo not drawn) [1-DG, 1-Decanoyl glycerol] | –
51.2 ± 7.7 nM | – | CCCCCCCCCCCCCCCC(=O)OC(CO)CO [2-PG, 2-Palmitoyl glycerol] | –
217 ± 14.4 nM | eight times higher | CCCCC/C=C\C/C=C\C/C=C\C/C=C\CCCCCC(=O)O [ADA, Docosatetraenoic acid] | –
97.1 ± 27.6 nM | – | CCCCC/C=C\C/C=C\CCCCCCCC(=O)OCC(O)CO (stereo not drawn) [1-LG, 1-Linoleoyl glycerol] | –
89.3 ± 14.3 nM | – | CCCCC/C=C\C/C=C\C/C=C\C/C=C\CCCC(=O)SCC(O)CO (stereo not drawn) [1-ASG, Arachidonoyl-1-thio-glycerol] | fold increase of the Kd value on substitution of the ester group with a thioester bond (human CRBP2 [1]; as compared with 1-AG): ~2 fold; enantiomer exclusively present in the binding pocket (electron density) (human CRBP2 [3]): R-enantiomer
172 ± 8.8 nM | over 6 fold | CCCCCCCCCCCC(=O)OC(CO)CO [2-LaG, 2-Lauroyl glycerol] | –
54.8 ± 9.8 nM | 2 fold | CCCCCCCCCCCCCCCCCC(=O)OC(CO)CO [2-SG, 2-Stearoyl glycerol] | –
